Measurements from patent publication US6838019B2, “Phosphorescent material and electroluminescent device using thereof” (Ritek Corporation, priority 2001, dated 2005).

Experiment: Solubility test in organic solvents
Assay type: physicochemical
Design: key: X: not dissolved; ◯: partially dissolved; ⊚: completely dissolved
Conditions: 1 mg, room temperature (20 degrees Celsius); for Solubility in methylcyclohexane: methyl cyclohexane
Procedure: 1 mg of Tb(TMHD)3—DMSO, Tb(TMHD)3—MPSO, Tb(TMHD)3—DPSO, Tb(TMHD)3, Tb(TMHD)3—OPNP are each dissolved under room temperature (20 degrees Celsius) in the following organic solvent: dichlormethane, acetonitrile, toluene, ethyl acetate, hexane, methyl cyclohexane methanol, methy ethyl ketone ether.

| Solubility in acetonitrile | Solubility in dichloromethane | Solubility in ether | Solubility in ethyl acetate | Solubility in hexane | Solubility in methanol | Solubility in methylcyclohexane | Solubility in methyl ethyl ketone | Solubility in toluene | Molecule |
| --- | --- | --- | --- | --- | --- | --- | --- | --- | --- |
| ◯ | ⊚ | ⊚ | ⊚ | ⊚ | ⊚ | ⊚ | ⊚ | ⊚ | CC(C)(C)C(=O)C=C([O-])C(C)(C)C.CC(C)(C)C(=O)C=C([O-])C(C)(C)C.CC(C)(C)C(=O)C=C([O-])C(C)(C)C.O=S(c1ccccc1)c1ccccc1.[Tb+3] [Tb(TMHD)3-DPSO, tri(2,2,6,6-tetramethyl-3,5-heptanedionate) Tb(III) diphenyl sulfoxide] |
| ◯ | ⊚ | ⊚ | ⊚ | ⊚ | ⊚ | ⊚ | ⊚ | ⊚ | CC(C)(C)C(=O)C=C([O-])C(C)(C)C.CC(C)(C)C(=O)C=C([O-])C(C)(C)C.CC(C)(C)C(=O)C=C([O-])C(C)(C)C.CS(=O)c1ccccc1.[Tb+3] [Tb(TMHD)3-MPSO, tri(2,2,6,6-tetramethyl-3,5-heptanedionate) Tb(III) methyl phenyl sulfoxide] |
| ◯ | ⊚ | ⊚ | ⊚ | ◯ | ◯ | ◯ | ⊚ | ⊚ | Tris(2,2,6,6-tetramethyl-3,5-heptanedionato) Terbium (III) diphenyl phosphonimide tris-phenyl phosphorane [Tb(TMHD)3-OPNP, reference compound] |
| X | ◯ | ◯ | X | X | X | X | X | ◯ | CC(C)(C)C(=O)[CH-]C(=O)C(C)(C)C.CC(C)(C)C(=O)[CH-]C(=O)C(C)(C)C.CC(C)(C)C(=O)[CH-]C(=O)C(C)(C)C.[Tb+3] [Tb(TMHD)3, tris(2,2,6,6-tetramethyl-3,5-heptanedionato) Terbium(III), reference compound] |
| ◯ | ⊚ | ⊚ | ⊚ | ⊚ | ⊚ | ⊚ | ⊚ | ⊚ | CC(C)(C)C(=O)C=C([O-])C(C)(C)C.CC(C)(C)C(=O)C=C([O-])C(C)(C)C.CC(C)(C)C(=O)C=C([O-])C(C)(C)C.CS(C)=O.[Tb+3] [Tb(TMHD)3-DMSO, tri(2,2,6,6-tetramethyl-3,5-heptanedionate) Tb(III) dimethyl sulfoxide] |
